According to patent US20250122221A1 (NANJING ZAIMING PHARMACEUTICAL CO., LTD., priority 2022, published 2025):
Where two headings read alike, the source gives them in different places.

Legend:
[1] = test system: DLD-1 BRCA2 (−/−) cells; test: Inhibition of tumour cell proliferation, 7 days, CTG; type: cell-based; conditions: Homo sapiens, read-out: DLD-1 BRCA2 (−/−) IC50
Procedure: (§1) Brief introduction to the experimental principle: The compounds were co-incubated with tumour cells for 7 days, and then a CTG kit from Promega Inc was used to quantify ATP in viable cells, thus reflecting the effect of the compounds on tumour cell proliferation.
(§2) Experimental method: DLD-1 parental cells or DLD-1 BRCA2 (−/−) cells were diluted with RPMI 1640 medium containing 10% FBS, and then added to a 96-well plate (90 μL/well), with the number of cells being 600 cells/well or 1200 cells/well, respectively, and cultured overnight in a 37° C., 5% CO2 incubator. The compounds to be tested were diluted to different concentrations in dimethyl sulfoxide (DMSO), and then added to a 96-well plate. The final concentration of the compounds in the reaction system started from 25 μM, and was subjected to 4-fold gradient dilution. The concentration range of the compounds was from 25 μM to 0.0004 μM, and the final concentration of DMSO was 0.25% v/v. After 7 days of incubation, 50 μL/well CTG was added, and the mixture was incubated at room temperature for 10 minutes. Subsequently, the luminescence (Lum) signal value was read with an Envision microplate reader, and the inhibition rate and half inhibitory concentration (IC50) were calculated.
(§3) The inhibition rate was calculated, and XLfit software was used to perform fitting to obtain IC50 of the compounds.
(§4) In the experiment, a blank well and a DMSO well were set up, respectively.
(§5) Inhibition rate=100*(Lummax−Lumcompound)/(Lummax−Lummin)%, • where Lummax refers to the luminescence signal value of the well containing cells and 0.25% v/v DMSO; Lumcompound refers to the luminescence signal value of the well containing the compound and cells; and Lummin refers to the luminescence signal value of the well containing the medium and 0.25% v/v DMSO.

[2] = test system: DLD-1 parental cells; test: as above; type: cell-based; conditions: Homo sapiens, read-out: DLD-1 parental cell IC50
Procedure: as §1, §2, §3, §4, §5

[3] = target: N-terminal active peptide segment (MI-N899) of POLQ with ATPase activity (Homo sapiens (Human), UniProt O75417); test: POLQ enzyme activity inhibition experiment (ATPase, NADH-coupled, OD 340 nm); type: biochemical; conditions: 100 nM POLQ (N), 100 μM ATP, 300 nM dT50
N-terminal active peptide segment (MI-N899) of POLQ with ATPase activity, sequence (O75417 1-899 limits assumed): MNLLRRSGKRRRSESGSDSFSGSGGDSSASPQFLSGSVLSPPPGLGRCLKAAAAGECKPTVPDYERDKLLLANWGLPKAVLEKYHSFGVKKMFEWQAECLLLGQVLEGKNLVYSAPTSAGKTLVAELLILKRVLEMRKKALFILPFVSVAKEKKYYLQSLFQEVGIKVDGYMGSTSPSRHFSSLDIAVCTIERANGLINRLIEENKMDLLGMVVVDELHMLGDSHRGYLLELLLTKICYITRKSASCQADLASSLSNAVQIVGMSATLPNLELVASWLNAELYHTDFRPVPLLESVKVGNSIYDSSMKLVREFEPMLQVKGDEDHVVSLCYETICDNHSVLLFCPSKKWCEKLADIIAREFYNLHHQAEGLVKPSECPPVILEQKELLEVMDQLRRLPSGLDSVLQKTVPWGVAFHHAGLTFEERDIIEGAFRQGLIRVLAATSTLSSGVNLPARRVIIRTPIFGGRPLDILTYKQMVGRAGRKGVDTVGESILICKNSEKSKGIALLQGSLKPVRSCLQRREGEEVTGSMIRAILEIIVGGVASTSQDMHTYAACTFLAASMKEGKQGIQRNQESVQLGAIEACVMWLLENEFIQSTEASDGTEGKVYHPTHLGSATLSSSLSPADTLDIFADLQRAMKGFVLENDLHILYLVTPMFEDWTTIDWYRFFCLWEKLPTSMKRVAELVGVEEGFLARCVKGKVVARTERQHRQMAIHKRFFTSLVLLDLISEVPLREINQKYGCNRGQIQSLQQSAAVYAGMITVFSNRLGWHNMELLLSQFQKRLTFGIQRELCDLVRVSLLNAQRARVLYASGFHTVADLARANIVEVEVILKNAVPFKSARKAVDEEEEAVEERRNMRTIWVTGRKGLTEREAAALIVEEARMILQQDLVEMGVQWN

[4] = 168 h, DLD-1 BRCA2 (−/−) cells, 7 days of incubation, CTG
[5] = 168 h, DLD-1 parental cells, 7 days of incubation, CTG

IC50 [1, 4] [nM]	IC50 [3] [nM]	Structure (SMILES)	IC50 [2, 5] [nM]	IC50 ([1]; DLD-1, 168 h) [nM]	IC50 ([2]; DLD-1, 168 h) [nM]
< 200	< 100	COc1cnc(C(F)(F)F)cc1-c1cc(C)ncc1C(=O)Nc1nc2ncc(-c3ccc(C#N)cc3)nc2s1 [Compound 73, N-(6-(4-cyanophenyl)thiazolo[4,5-b]pyrazin-2-yl)-5′-methoxy-6-methyl-2′-(trifluoromethyl)-[4,4′-bipyridine]-3-carboxamide]	> 10000	–	–
< 200	< 100	Cc1cc(-c2cc(C)ncc2C(=O)Nc2nc3ncc(-c4ccc(C#N)cc4)nc3s2)c(OC(F)F)cn1 [Compound 74, N-(6-(4-cyanophenyl)thiazolo[4,5-b]pyrazin-2-yl)-5′-(difluoromethoxy)-2′,6-dimethyl-[4,4′-bipyridine]-3-carboxamide]	> 10000	–	–
< 200	< 100	COc1ccc(Cl)cc1-c1cc(C)ncc1C(=O)Nc1nc2ncc(-c3ccc(C4CC4)cn3)nc2s1 [Compound 77, 4-(5-chloro-2-methoxyphenyl)-N-[6-(5-cyclopropylpyridin-2-yl)thiazolo[4,5-b]pyrazin-2-yl]-6-methylpyridine-3-carboxamide]	> 10000	–	–
< 200	< 100	COc1ccc(Cl)cc1-c1cc(C)ncc1C(=O)Nc1nc2ncc(-c3ccc(C(C)(C)O)cn3)nc2s1 [Compound 78, 4-(5-chloro-2-methoxyphenyl)-N-(6-(5-(2-hydroxyprop-2-yl)pyridin-2-yl)thiazolo[4,5-b]pyrazin-2-yl)-6-methylpyridine-3-carboxamide]	> 10000	–	–
< 200	< 100	COc1ccc(Cl)cc1-c1cc(C)ncc1C(=O)Nc1nc2ncc(-c3ccc(C4CC4)cc3)nc2s1 [Compound 79, 4-(5-chloro-2-methoxyphenyl)-N-(6-(4-cyclopropylphenyl)thiazolo[4,5-b]pyrazin-2-yl)-6-methylpyridine-3-carboxamide]	> 10000	–	–
< 200	< 100	COc1ccc(Cl)cc1-c1cc(C)ncc1C(=O)Nc1nc2ncc(-c3ccc(OC(F)F)cc3)nc2s1 [Compound 80, 4-(5-chloro-2-methoxyphenyl)-N-(6-(4-(difluoromethoxy)phenyl)thiazolo[4,5-b]pyrazin-2-yl)-6-methylpyridine-3-carboxamide]	> 10000	–	–
< 200	< 100	COc1cnc(C)cc1-c1cc(C)ncc1C(=O)Nc1nc2ncc(-c3ccc(OC(F)(F)F)cc3)nc2s1 [Compound 81, 5′-methoxy-2′,6-dimethyl-N-(6-(4-(trifluoromethoxy)phenyl)thiazolo[4,5-b]pyrazin-2-yl)-[4,4′-bipyridine]-3-carboxamide]	> 10000	–	–
< 200	< 100	COc1cnc(C)cc1-c1cc(C)ncc1C(=O)Nc1nc2ncc(-c3ccc(C4CC4)cc3)nc2s1 [Compound 82, N-(6-(4-cyclopropylphenyl)thiazolo[4,5-b]pyrazin-2-yl)-5′-methoxy-2′,6-dimethyl-[4,4′-bipyridine]-3-carboxamide]	> 10000	–	–
< 200	< 100	COc1cnc(C2CC2)cc1-c1cc(C)ncc1C(=O)Nc1nc2ncc(-c3ccc(C4CC4)cc3)nc2s1 [Compound 83, 2′-cyclopropyl-N-(6-(4-cyclopropylphenyl)thiazolo[4,5-b]pyrazin-2-yl)-5′-methoxy-6-methyl-[4,4′-bipyridine]-3-carboxamide]	> 10000	–	–
< 200	< 100	COc1ccc(C2CC2)cc1-c1cc(C)ncc1C(=O)Nc1nc2ncc(-c3ccc(C#N)cc3)nc2s1 [Compound 84, N-(6-(4-cyanophenyl)thiazolo[4,5-b]pyrazin-2-yl)-4-(5-cyclopropyl-2-methoxyphenyl)-6-methylpyridine-3-carboxamide]	> 10000	–	–
< 200	< 100	COc1ccc(C2CC2)cc1-c1cc(C)ncc1C(=O)Nc1nc2ncc(-c3ccc(OC(F)F)cc3)nc2s1 [Compound 85, 4-(5-cyclopropyl-2-methoxyphenyl)-N-(6-(4-(difluoromethoxy)phenyl)thiazolo[4,5-b]pyrazin-2-yl)-6-methylpyridine-3-carboxamide]	> 10000	–	–
< 200	< 100	COc1ccc(C(F)(F)F)cc1-c1cc(C)ncc1C(=O)Nc1nc2ncc(-c3ccc(C#N)cc3)nc2s1 [Compound 86, N-(6-(4-cyanophenyl)thiazolo[4,5-b]pyrazin-2-yl)-4-(2-methoxy-5-(trifluoromethyl)phenyl)-6-methylpyridine-3-carboxamide]	> 10000	–	–
< 200	< 100	Cc1cc(-c2cc(Cl)ccc2Cl)c(C(=O)Nc2nc3ncc(-c4ccc(C#N)cc4)nc3s2)cn1 [Compound 87, N-(6-(4-cyanophenyl)thiazolo[4,5-b]pyrazin-2-yl)-4-(2,5-dichlorophenyl)-6-methylpyridine-3-carboxamide]	> 10000	–	–
< 200	< 100	COc1cnc(C)cc1-c1cc(C)ccc1C(=O)Nc1nc2ncc(-c3ccc(C#N)cc3)nc2s1 [Compound 92, N-(6-(4-cyanophenyl)thiazolo[4,5-b]pyrazin-2-yl)-2-(5-methoxy-2-methylpyridine-4-yl)-4-methylbenzamide]	> 10000	–	–
< 200	< 100	COc1ccc(Cl)cc1-c1cc(C)ccc1C(=O)Nc1nc2ncc(-c3ccc(C#N)cc3)nc2s1 [Compound 93, 5′-chloro-N-(6-(4-cyanophenyl)thiazolo[4,5-b]pyrazin-2-yl)-2′-methoxy-5-methyl-[1,1′-biphenyl]-2-carboxamide]	> 10000	–	–

Structure (SMILES)	IC50 [1, 4] [nM]	IC50 [3] [nM]	IC50 [2, 5] [nM]	IC50 ([1]; DLD-1, 168 h) [nM]	IC50 ([2]; DLD-1, 168 h) [nM]
COc1ccc(-c2cnc3nc(NC(=O)c4cnc(C)cc4-c4cc(C)ncc4OC)sc3n2)nc1 [Compound 75, 5′-methoxy-N-[6-(5-methoxypyridin-2-yl)thiazolo[4,5-b]pyrazin-2-yl]-2′,6-dimethyl-[4,4′-bipyridine]-3-carboxamide]	–	< 100	–	< 200	> 10000
Cc1cc(-c2cc(Cl)ccc2OC2CC2)c(C(=O)Nc2nc3ncc(-c4ccc(C#N)cc4)nc3s2)cn1 [Compound 94, 4-(5-chloro-2-cyclopropoxyphenyl)-N-(6-(4-cyanophenyl)thiazolo[4,5-b]pyrazin-2-yl)-6-methylpyridine-3-carboxamide]	–	< 100	–	< 200	> 10000
